# Reference: PubChem BioAssay AID1259407 (Chemical Carcinogenesis Research Information System (CCRIS), 2018)
# Calls of active or inactive are those of the source. No rule for the calls is given here.
# System: CCRIS mutagenicity, Ames/micronucleus/aberration tests
# Assay: CCRIS mutagenicity studies
# [1] = Test System: AMES SALMONELLA TYPHIMURIUM, Strain/Indicator: TA100, Metabolic Activation: NONE, Method: PREINCUBATION
# [2] = Test System: AMES SALMONELLA TYPHIMURIUM, Strain/Indicator: TA98, Metabolic Activation: NONE, Method: PREINCUBATION
compound,measurement,setting,value
CCC/C=C/C=O,mutagenic call,"Test System: AMES SALMONELLA TYPHIMURIUM, Strain/Indicator: TA97A, Metabolic Activation: NONE, Method: DESICCATOR",inactive; negative
same,mutagenic call,"Test System: AMES SALMONELLA TYPHIMURIUM, Strain/Indicator: TA97A, Metabolic Activation: S-9, Method: DESICCATOR",inactive; negative
same,mutagenic call,"Test System: AMES SALMONELLA TYPHIMURIUM, Strain/Indicator: TA98, Metabolic Activation: NONE, Method: DESICCATOR",inactive; negative
same,mutagenic call,"Test System: AMES SALMONELLA TYPHIMURIUM, Strain/Indicator: TA100, Metabolic Activation: NONE, Method: DESICCATOR",inactive; negative
same,mutagenic call,[1],inactive; negative
same,mutagenic call,"Test System: AMES SALMONELLA TYPHIMURIUM, Strain/Indicator: TA100, Metabolic Activation: NONE, Method: PREINCUBATION (THREEFOLD CELL DENSITY)",active; positive
same,mutagenic call,"Test System: AMES SALMONELLA TYPHIMURIUM, Strain/Indicator: TA100, Metabolic Activation: RAT, LIVER, S-9, AROCLOR 1254, Method: PREINCUBATION",inactive; negative
same,mutagenic call,"Test System: AMES SALMONELLA TYPHIMURIUM, Strain/Indicator: TA100, Metabolic Activation: RAT, LIVER, S-9, AROCLOR 1254, Method: PREINCUBATION (THREEFOLD CELL DENSITY)",active; positive
same,mutagenic call,"Test System: AMES SALMONELLA TYPHIMURIUM, Strain/Indicator: TA100, Metabolic Activation: S-9, Method: DESICCATOR",inactive; negative
same,mutagenic call,"Test System: AMES SALMONELLA TYPHIMURIUM, Strain/Indicator: TA102, Metabolic Activation: S-9, Method: DESICCATOR",inactive; negative
same,mutagenic call,"Test System: AMES SALMONELLA TYPHIMURIUM, Strain/Indicator: TA104, Metabolic Activation: NONE, Method: DESICCATOR",inactive; negative
same,mutagenic call,"Test System: AMES SALMONELLA TYPHIMURIUM, Strain/Indicator: TA104, Metabolic Activation: NONE, Method: PREINCUBATION",active; positive
same,mutagenic call,"Test System: AMES SALMONELLA TYPHIMURIUM, Strain/Indicator: TA104, Metabolic Activation: S-9, Method: DESICCATOR",inactive; negative
same,mutagenic call,"Test System: CHINESE HAMSTER V-79, Strain/Indicator: V-79/6-THIOGUANINE, Metabolic Activation: NONE, Method: STANDARD PLATE",active; positive
same,mutagenic call,"Test System: CHINESE HAMSTER V-79, Strain/Indicator: V-79/OUABAIN, Metabolic Activation: NONE, Method: STANDARD PLATE",inactive; negative
O=C1OC(=O)c2c(Cl)c(Cl)c(Cl)c(Cl)c21,mutagenic call,"End Point: IN VITRO CHROMOSOMAL ABERRATIONS, Test System: CHINESE HAMSTER OVARY CELLS, Metabolic Activation: NONE",inactive; negative
same,mutagenic call,"End Point: IN VITRO CHROMOSOMAL ABERRATIONS, Test System: CHINESE HAMSTER OVARY CELLS, Metabolic Activation: RAT, LIVER, S-9, AROCLOR 1254",inactive; negative
same,mutagenic call,"Test System: AMES SALMONELLA TYPHIMURIUM, Strain/Indicator: TA98, Metabolic Activation: HAMSTER, LIVER, S-9, AROCLOR 1254 (10%), Method: PREINCUBATION",inactive; negative
same,mutagenic call,[2],inactive; negative
same,mutagenic call,"Test System: AMES SALMONELLA TYPHIMURIUM, Strain/Indicator: TA98, Metabolic Activation: RAT, LIVER, S-9, AROCLOR 1254 (10%), Method: PREINCUBATION",inactive; negative
same,mutagenic call,"Test System: AMES SALMONELLA TYPHIMURIUM, Strain/Indicator: TA100, Metabolic Activation: HAMSTER, LIVER, S-9, AROCLOR 1254 (10%), Method: PREINCUBATION",inactive; negative
same,mutagenic call,[1],inactive; negative
same,mutagenic call,"Test System: AMES SALMONELLA TYPHIMURIUM, Strain/Indicator: TA100, Metabolic Activation: RAT, LIVER, S-9, AROCLOR 1254 (10%), Method: PREINCUBATION",inactive; negative
same,mutagenic call,"Test System: AMES SALMONELLA TYPHIMURIUM, Strain/Indicator: TA1535, Metabolic Activation: HAMSTER, LIVER, S-9, AROCLOR 1254 (10%), Method: PREINCUBATION",inactive; negative
same,mutagenic call,"Test System: AMES SALMONELLA TYPHIMURIUM, Strain/Indicator: TA1535, Metabolic Activation: NONE, Method: PREINCUBATION",inactive; negative
same,mutagenic call,"Test System: AMES SALMONELLA TYPHIMURIUM, Strain/Indicator: TA1535, Metabolic Activation: RAT, LIVER, S-9, AROCLOR 1254 (10%), Method: PREINCUBATION",inactive; negative
same,mutagenic call,"Test System: AMES SALMONELLA TYPHIMURIUM, Strain/Indicator: TA1537, Metabolic Activation: HAMSTER, LIVER, S-9, AROCLOR 1254 (10%), Method: PREINCUBATION",inactive; negative
same,mutagenic call,"Test System: AMES SALMONELLA TYPHIMURIUM, Strain/Indicator: TA1537, Metabolic Activation: NONE, Method: PREINCUBATION",inactive; negative
same,mutagenic call,"Test System: AMES SALMONELLA TYPHIMURIUM, Strain/Indicator: TA1537, Metabolic Activation: RAT, LIVER, S-9, AROCLOR 1254 (10%), Method: PREINCUBATION",inactive; negative
O[C@@H]1[C@@H]2O[C@@H]2c2c(ccc3cc4ccc5ccccc5c4nc23)[C@H]1O,mutagenic call,[2],active; positive
same,mutagenic call,[1],active; positive
same,mutagenic call,"Test System: CHINESE HAMSTER V-79, Strain/Indicator: V-79/8-AZAGUANINE, Metabolic Activation: NONE, Method: STANDARD PLATE",active; positive
CC(C)CCCCCCOC(=O)CCCCC(=O)OCCCCCCC(C)C,mutagenic call,"Test System: AMES SALMONELLA TYPHIMURIUM, Strain/Indicator: TA98, Metabolic Activation: HAMSTER, LIVER, S-9, AROCLOR 1254, Method: STANDARD PLATE",inactive; negative
same,mutagenic call,"Test System: AMES SALMONELLA TYPHIMURIUM, Strain/Indicator: TA98, Metabolic Activation: NONE, Method: STANDARD PLATE",inactive; negative
same,mutagenic call,"Test System: AMES SALMONELLA TYPHIMURIUM, Strain/Indicator: TA98, Metabolic Activation: RAT, LIVER, S-9, AROCLOR 1254, Method: STANDARD PLATE",inactive; negative
same,mutagenic call,"Test System: AMES SALMONELLA TYPHIMURIUM, Strain/Indicator: TA100, Metabolic Activation: HAMSTER, LIVER, S-9, AROCLOR 1254, Method: STANDARD PLATE",inactive; negative
same,mutagenic call,"Test System: AMES SALMONELLA TYPHIMURIUM, Strain/Indicator: TA100, Metabolic Activation: NONE, Method: STANDARD PLATE",inactive; negative
same,mutagenic call,"Test System: AMES SALMONELLA TYPHIMURIUM, Strain/Indicator: TA100, Metabolic Activation: RAT, LIVER, S-9, AROCLOR 1254, Method: STANDARD PLATE",inactive; negative
same,mutagenic call,"Test System: AMES SALMONELLA TYPHIMURIUM, Strain/Indicator: TA1535, Metabolic Activation: HAMSTER, LIVER, S-9, AROCLOR 1254, Method: STANDARD PLATE",inactive; negative
same,mutagenic call,"Test System: AMES SALMONELLA TYPHIMURIUM, Strain/Indicator: TA1535, Metabolic Activation: NONE, Method: STANDARD PLATE",inactive; negative
same,mutagenic call,"Test System: AMES SALMONELLA TYPHIMURIUM, Strain/Indicator: TA1535, Metabolic Activation: RAT, LIVER, S-9, AROCLOR 1254, Method: STANDARD PLATE",inactive; negative
same,mutagenic call,"Test System: AMES SALMONELLA TYPHIMURIUM, Strain/Indicator: TA1537, Metabolic Activation: HAMSTER, LIVER, S-9, AROCLOR 1254, Method: STANDARD PLATE",inactive; negative
same,mutagenic call,"Test System: AMES SALMONELLA TYPHIMURIUM, Strain/Indicator: TA1537, Metabolic Activation: NONE, Method: STANDARD PLATE",inactive; negative
same,mutagenic call,"Test System: AMES SALMONELLA TYPHIMURIUM, Strain/Indicator: TA1537, Metabolic Activation: RAT, LIVER, S-9, AROCLOR 1254, Method: STANDARD PLATE",inactive; negative
same,mutagenic call,"Test System: AMES SALMONELLA TYPHIMURIUM, Strain/Indicator: TA1538, Metabolic Activation: HAMSTER, LIVER, S-9, AROCLOR 1254, Method: STANDARD PLATE",inactive; negative
same,mutagenic call,"Test System: AMES SALMONELLA TYPHIMURIUM, Strain/Indicator: TA1538, Metabolic Activation: NONE, Method: STANDARD PLATE",inactive; negative
same,mutagenic call,"Test System: AMES SALMONELLA TYPHIMURIUM, Strain/Indicator: TA1538, Metabolic Activation: RAT, LIVER, S-9, AROCLOR 1254, Method: STANDARD PLATE",inactive; negative
same,mutagenic call,"Test System: MOUSE LYMPHOMA, Strain/Indicator: L5178Y (TK+/TK-), Metabolic Activation: NONE, Method: SUSPENSION/PLATE",inactive; negative
same,mutagenic call,"Test System: MOUSE LYMPHOMA, Strain/Indicator: L5178Y (TK+/TK-), Metabolic Activation: RAT, LIVER, S-9, AROCLOR 1254, Method: SUSPENSION/PLATE",inactive; negative
